According to patent US12146004B2, “Polymyxin compounds and uses thereof” (priority 2014, dated 2024):
Values after ≈ are worked out from the molar mass of the structure shown. Bridge positions count the residues as written; N and C are the ends. Square brackets hold non-standard residues; d marks the D form. Peptide text beside a SMILES is read from it. * marks the point of attachment. ξ: configuration not given here. dPhe(4-Br) = N[C@H](Cc1ccc(Br)cc1)C(=O)O; Gly(octyl) = CCCCCCCC[C@H](N)C(=O)O; Octanoyl(6-Me) = CCC(C)CCCCC(=O)*; Thr(3ξ) = CC(O)[C@H](N)C(=O)O; Octanoyl = CCCCCCCC(=O)*; Dab = NCC[C@H](N)C(=O)O; X18 = CCCCC(CCN)C(=O)*

What was measured:
Assay type in all cases: cell-based
Escherichia coli = test system: Escherichia coli
Summary of the method: (§1)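 Values are minimum inhibitory concentrations in μg/mL, measured across a panel of up to nine strains of each Gram-negative pathogen, some Polymyxin-elevated or resistant.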

Klebsiella pneumoniae = test system: Klebsiella pneumoniae
Summary of the method: as §1

Pseudomonas aeruginosa = test system: Pseudomonas aeruginosa
Summary of the method: as §1

Acinetobacter baumannii = test system: Acinetobacter baumannii
Summary of the method: as §1

[1] = test system: Escherichia coli, Pseudomonas aeruginosa, Klebsiella pneumoniae and Acinetobacter baumannii; assay: Susceptibility testing, comparisons in words across the Gram negative pathogens
Method: To evaluate the potency and spectrum of the compounds, susceptibility testing was performed against up to nine strains of each of the Gram negative pathogens, Escherichia coli, Pseudomonas aeruginosa, Klebsiella pneumoniae and Acinetobacter baumannii.

HK-2 cells = test system: HK-2 cells
Text: Values are reported relative to Polymyxin B.

MIC E. coli 058 (Escherichia coli) [µg/mL]	MIC E. coli ATCC 25922 (Escherichia coli) [µg/mL]	MIC K. pneumoniae 065 (Klebsiella pneumoniae) [µg/mL]	MIC K. pneumoniae ATCC 4352 (Klebsiella pneumoniae) [µg/mL]	MIC K. pneumoniae ATCC 13882 (Klebsiella pneumoniae) [µg/mL]	MIC P. aeruginosa ATCC 27853 (Pseudomonas aeruginosa) [µg/mL]	MIC P. aeruginosa CCUG 59347 (Pseudomonas aeruginosa) [µg/mL]	MIC A. baumanii ATCC BAA-747 (Acinetobacter baumannii) [µg/mL]	MIC A. baumanii NCTC 13424 (Acinetobacter baumannii) [µg/mL]	MIC E. coli 059 (Escherichia coli) [µg/mL]	MIC E. coli 060 (Escherichia coli) [µg/mL]	MIC E. coli 061 (Escherichia coli) [µg/mL]	MIC K. pneumoniae 062 (Klebsiella pneumoniae) [µg/mL]	MIC K. pneumoniae 063 (Klebsiella pneumoniae) [µg/mL]	MIC K. pneumoniae 064 (Klebsiella pneumoniae) [µg/mL]	MIC K. pneumoniae 066 (Klebsiella pneumoniae) [µg/mL]	MIC K. pneumoniae 067 (Klebsiella pneumoniae) [µg/mL]	MIC P. aeruginosa 068 (Pseudomonas aeruginosa) [µg/mL]	MIC P. aeruginosa 070 (Pseudomonas aeruginosa) [µg/mL]	MIC A. baumanii 053 (Acinetobacter baumannii) [µg/mL]	Structure (SMILES)	other results
>64	1.0 (≈ 0.905 µM)	>64	0.25 (≈ 0.226 µM)	1 (≈ 0.905 µM)	1 (≈ 0.905 µM)	2 (≈ 1.81 µM)	1 (≈ 0.905 µM)	0.5 (≈ 0.453 µM)	–	–	–	–	–	–	–	–	–	–	–	CCCCC(CCN)C(=O)N[C@H](C(=O)N[C@@H](CCN)C(=O)N[C@H]1CCNC(=O)[C@H]([C@@H](C)O)NC(=O)[C@H](CCN)NC(=O)[C@H](CCN)NC(=O)[C@H](CC(C)C)NC(=O)[C@@H](Cc2ccccc2)NC(=O)[C@H](CCN)NC1=O)C(C)O (stereo partly shown) [Example C4, 2-(2-Aminoethyl) hexanoyl polymyxin B nonapeptide, reference compound] (X18-[Thr(3ξ)][Dab][Dab][Dab][dF]L[Dab][Dab]T; lactam 3-C)	activity [1]: only moderate activity
2 (≈ 1.61 µM)	1 (≈ 0.803 µM)	2 (≈ 1.61 µM)	–	1 (≈ 0.803 µM)	0.5 (≈ 0.401 µM)	2 (≈ 1.61 µM)	1 (≈ 0.803 µM)	1 (≈ 0.803 µM)	–	–	–	–	–	–	–	–	–	–	–	CCCCCCCC[C@@H]1NC(=O)[C@@H](Cc2ccccc2)NC(=O)[C@H](CCN)NC(=O)[C@@H](NC(=O)[C@H](CCN)NC(=O)[C@@H](NC(=O)[C@H](CCN)NC(=O)CCCCCCC)[C@@H](C)O)CCNC(=O)[C@H]([C@@H](C)O)NC(=O)[C@H](CCN)NC(=O)[C@H](CCN)NC1=O [Example C7, octanoyl-Dab-Thr-Dab-Cy[Dab-Dab-D-Phe-L-OctGly-Dab-Dab-Thr], reference compound] (Octanoyl-[Dab]T[Dab][Dab][Dab][dF][Gly(octyl)][Dab][Dab]T; lactam 4-C)	MIC E. coli CA059 (Escherichia coli): 2 µg/mL (≈ 1.61 µM); MIC E. coli CA060 (Escherichia coli): 2 µg/mL (≈ 1.61 µM); MIC E. coli CA061 (Escherichia coli): 4 µg/mL (≈ 3.21 µM); MIC K. pneumoniae CA062 (Klebsiella pneumoniae): 16 µg/mL (≈ 12.8 µM); MIC K. pneumoniae CA063 (Klebsiella pneumoniae): 8 µg/mL (≈ 6.42 µM); MIC K. pneumoniae CA064 (Klebsiella pneumoniae): 4 µg/mL (≈ 3.21 µM); MIC K. pneumoniae CA066 (Klebsiella pneumoniae): 2 µg/mL (≈ 1.61 µM); MIC K. pneumoniae CA067 (Klebsiella pneumoniae): 64 µg/mL (≈ 51.4 µM); MIC K. pneumoniae N655 (Klebsiella pneumoniae): 8 µg/mL (≈ 6.42 µM); MIC P. aeruginosa CA068 (Pseudomonas aeruginosa): 4 µg/mL (≈ 3.21 µM); MIC P. aeruginosa CA070 (Pseudomonas aeruginosa): 2 µg/mL (≈ 1.61 µM); MIC A. baumannii CA053 (Acinetobacter baumannii): 4 µg/mL (≈ 3.21 µM); MIC A. baumannii CA056 (Acinetobacter baumannii): 4 µg/mL (≈ 3.21 µM); activity against polymyxin-susceptible strains ([1]; versus compounds in a more negative A Log P range): less active against polymyxin-susceptible strains
2 (≈ 1.56 µM)	2 (≈ 1.56 µM)	0.5 (≈ 0.39 µM)	1 (≈ 0.78 µM)	–	1 (≈ 0.78 µM)	–	2 (≈ 1.56 µM)	–	1 (≈ 0.78 µM)	2 (≈ 1.56 µM)	4 (≈ 3.12 µM)	8 (≈ 6.24 µM)	16 (≈ 12.5 µM)	2 (≈ 1.56 µM)	4 (≈ 3.12 µM)	16 (≈ 12.5 µM)	2 (≈ 1.56 µM)	4 (≈ 3.12 µM)	16 (≈ 12.5 µM)	CCC(C)CCCCC(=O)N[C@@H](CCN)C(=O)N[C@H](C(=O)N[C@@H](CCN)C(=O)N[C@H]1CCNC(=O)[C@H]([C@@H](C)O)NC(=O)[C@H](CCN)NC(=O)[C@H](CCN)NC(=O)[C@H](CC(C)C)NC(=O)[C@@H](Cc2ccc(Br)cc2)NC(=O)[C@H](CCN)NC1=O)C(C)O (stereo partly drawn) [Example 2, Polymyxin B[D-(4-bromoPhe)]-6]] ({Octanoyl(6-Me)}-[Dab][Thr(3ξ)][Dab][Dab][Dab][dPhe(4-Br)]L[Dab][Dab]T; lactam 4-C)	MIC A. baumanii 056 (Acinetobacter baumannii): 4 µg/mL (≈ 3.12 µM); activity against polymyxin resistant strains ([1]; versus comparator compound): enhances activity against polymyxin resistant strains
1 (≈ 0.801 µM)	2 (≈ 1.6 µM)	1 (≈ 0.801 µM)	1 (≈ 0.801 µM)	–	2 (≈ 1.6 µM)	–	1 (≈ 0.801 µM)	–	1 (≈ 0.801 µM)	2 (≈ 1.6 µM)	2 (≈ 1.6 µM)	2 (≈ 1.6 µM)	8 (≈ 6.41 µM)	2 (≈ 1.6 µM)	4 (≈ 3.2 µM)	4 (≈ 3.2 µM)	2 (≈ 1.6 µM)	2 (≈ 1.6 µM)	4 (≈ 3.2 µM)	CCCCCCCCC1CNCC1C(=O)N[C@H](C(=O)N[C@@H](CCN)C(=O)N[C@H]1CCNC(=O)[C@H]([C@@H](C)O)NC(=O)[C@H](CCN)NC(=O)[C@H](CCN)NC(=O)[C@H](CC(C)C)NC(=O)[C@@H](Cc2ccccc2-c2ccccc2)NC(=O)[C@H](CCN)NC1=O)C(C)O (single isomer, unassigned; isomer 2) [Example 10, trans-4-octylpyrrolidine-3-carbonyl polymyxin [D-(2-phenyl)Phe]-6] nonapeptide. Isomer 2]	MIC A. baumanii 056 (Acinetobacter baumannii): 4 µg/mL (≈ 3.2 µM); HK-2 IC50 (HK-2 cells): 4 µg/mL
